# Source: patent publication US8901116B2, “Method for treating pain, anxiety or depression using carbamoyloxy alkanoyl piperazine compound” (SK Biopharmaceuticals Co., Ltd., priority 2007, dated 2014)
# Structures can show the parent of a compound that is named as a salt.
# Columns and labels:
# Format in all cases: in vivo
# male ICR mouse [1] = test: Elevated plus maze (EPM) test in mouse; conditions: po, p.o, 1 hour after dosing, 5 minutes observation, read-out: Elevated Plus Maze Change index in Open-Arm Time
# From the text: Elevated plus maze (EPM) is one of representative models that examine an anti-anxiety activity of a test material. Equipment used for an EPM test has a crossroad shape raised in a high position off the ground, and is configured in such a cliff shape that both sides of one road are protected with high walls and the other road is free from the wall. Among them, the road in the cliff shape is referred to as an ‘open arm,’ and the road protected by the walls is referred to as a ‘close arm.’ In this case, a level of the anxiety of a mouse may be measured by determining in which arm the mouse stays longer. In general, the mouse stays longer in the close arm than the open arm, but a mouse treated with a medicine showing an anti-anxiety effect stays relatively longer in the open arm. A test material dissolved in a suitable vehicle was orally administered to a male ICR mouse weighing 20 to 25 g at an amount of 10 mg/kg. After 1 hour of the oral administration, the mouse was put on the center of an EPM equipment to measure how long the mouse stays in the open arm within a time range of 5 minutes. The anti-anxiety effect of the test material is represented by the ‘Change index in Open-Arm Time’ {[(open arm duration in test material-administered group−open arm duration in vehicle-administered group)/(open arm duration in vehicle administered group)]×100%}.
# male ICR mouse [2] = test: Head twitch potentiation induced by 5-HTP (5-HTP potentiation test) in mouse; conditions: po, 0.5 h, p.o, 5-HTP 80 mg/kg + Carbidopa 25 mg/kg i.p. 30 minutes after dosing, head twitches counted for 2 minutes, negative = 5-HT2A antagonist, read-out: 5-HTP Potentiation Increase rate in Head Twitch No.
# Description: When 5-hydroxy-L-tryptophan (5-HTP) is administered into a mouse, a head twitch phenomenon is observed since serotonin is increasingly secreted in the mouse. […] By using this principle, it is possible to search an effect of the representative antidepressant agent. A test material dissolved in a suitable vehicle was orally administered to a male ICR mouse weighing 20 to 25 g at an amount of 30 mg/kg. After 30 minutes of the oral administration, 5-HTP (80 mg/kg) and 5-HTP peripheral decarbozylase inhibitor ‘Carbidopa’ (25 mg/kg) were intraperitoneally administered to the mouse. After 30 minutes of the intraperitoneal administration, the mouse was put into an observation cage, and head twitches of the mouse were counted for 2 minutes. The anti-depression effect of the test material is represented by the ‘Increase rate in Head Twitch No.’ {[(Head Twitch No. of Test material-administered group−Head Twitch No. of vehicle-administered group)/(Head Twitch No. of vehicle-administered group)]×100%}. […] In addition to the selective serotonin reuptake inhibitor (SSRI) that has been widely used as an antidepressant agent in the clinical fields, it was tested that 5-HT2A antagonists such as nefazodone and trazodone also have an antidepressant effect.
# male ICR mouse [3] = test: Hot plate test in mouse; conditions: po, p.o, 1 hour after dosing, hot plate 55° C., read-out: Hot Plate Test Increase in latency of avoidance response
# Description: A hot plate test is one of representative models for measuring an analgesic effect of drugs. A test material dissolved in a suitable vehicle was orally administered to a male ICR mouse weighing 25 to 30 g at an amount of 30 mg/kg. After 1 hour of the oral administration, the mouse was put on a hot plate (55° C.). A latency was recorded from the time right after a mouse is put on a hot plate to the time when avoidance responses (flinching, licking, jumping, etc.) to pain are observed from forefeet or rear legs of the mouse. The analgesic effect of the test material is represented by the ‘Increase in latency of avoidance response’ {[(Latency of avoidance response to pain of Test material-administered group−Latency of avoidance response to pain of vehicle-administered group)/(Latency of avoidance response to pain of Solvent-administered group)]×100%}.
# male ICR mouse [4] = test: Acetic acid-induced writhing test in mouse; conditions: po, p.o, acetic acid i.p. 1 hour after dosing, writhing counted for 10 minutes, read-out: Writhing Test Suppression of pain response
# Description: An acetic acid-induced writhing test is one of models for measuring an analgesic effect of drugs. A test material dissolved in a suitable vehicle was orally administered to a male ICR mouse weighing 30 to 35 g at an amount of 10 mg/kg. After 1 hour of the oral administration, […] of an aqueous 0.8% acetic acid solution was intraperitoneally injected into the male ICR mouse to induce the abdominal pain of the male ICR mouse. Right after the administration of acetic acid, the male ICR mouse was put into an empty cage, and the number of writhing behaviors of the mice was counted for 10 minutes. The term “writhing” represents a reflex action in which the mouse overtly extends its abdomen by stretching its hind legs due to the abdominal pain. The analgesic effect of the test material is represented by the ‘suppression of pain response’ {[(Writhing number of vehicle-administered group−Writhing number of Test material—administered group)/(Writhing number of Solvent-administered group)]×100%}.
smiles,measurement,setting,value
"NC(=O)OC(CC(=O)N1CCN(c2cccc(F)c2)CC1)c1ccccc1 (stereo not shown) [Example 30, carbamic acid 3-[4-(3-fluoro-phenyl)-piperazin-1-yl]-3-oxo-1-phenyl-propyl ester]",change in vivo at 10 mg/kg,male ICR mouse [1],102%
same,change in vivo at 30 mg/kg,male ICR mouse [2],40%
same,change in vivo at 30 mg/kg,male ICR mouse [3],27.1%
same,inhibition in vivo at 10 mg/kg,male ICR mouse [4],9.2%
"CC(C)(C)c1ccc(N2CCN(C(=O)CC(OC(N)=O)c3ccccc3)CC2)cc1 (stereo not shown) [Example 17, carbamic acid 3-[4-(4-tert-butyl-phenyl)-piperazin-1-yl]-3-oxo-1-phenyl-propyl ester]",change in vivo at 10 mg/kg,male ICR mouse [1],34%
same,change in vivo at 30 mg/kg,male ICR mouse [2],10%
same,change in vivo at 30 mg/kg,male ICR mouse [3],29.4%
same,inhibition in vivo at 10 mg/kg,male ICR mouse [4],25.3%
"NC(=O)OC(CC(=O)N1CCN(c2ccccc2)CC1)c1ccoc1 (stereo not shown) [Example 49, carbamic acid-1-furan-3-yl-3-oxo-3-(4-phenyl-piperazin-1-yl)-propyl ester]",change in vivo at 10 mg/kg,male ICR mouse [1],48.9%
same,change in vivo at 30 mg/kg,male ICR mouse [2],-20%
same,change in vivo at 30 mg/kg,male ICR mouse [3],20.6%
same,inhibition in vivo at 10 mg/kg,male ICR mouse [4],34.4%
"Cc1ccc(N2CCN(C(=O)C[C@@H](OC(N)=O)c3ccccc3)CC2)cc1 [Example 80, (R)-carbamic acid 3-[4-(4-methyl)-phenylpiperazin-1-yl]-3-oxo-1-phenyl-propyl ester]",change in vivo at 10 mg/kg,male ICR mouse [1],41.2%
same,change in vivo at 30 mg/kg,male ICR mouse [2],12.5%
same,change in vivo at 30 mg/kg,male ICR mouse [3],16.7%
same,inhibition in vivo at 10 mg/kg,male ICR mouse [4],36.3%
"CCOc1ccc(N2CCN(C(=O)C[C@@H](OC(N)=O)c3ccccc3)CC2)cc1 [Example 63, (R)-carbamic acid 3-[4-(4-ethoxy-phenyl)-piperazin-1-yl]-3-oxo-1-phenyl-propyl ester]",change in vivo at 10 mg/kg,male ICR mouse [1],25%
same,change in vivo at 30 mg/kg,male ICR mouse [2],19.5%
same,change in vivo at 30 mg/kg,male ICR mouse [3],15.2%
same,inhibition in vivo at 10 mg/kg,male ICR mouse [4],59.8%
"NC(=O)OC(CC(=O)N1CCN(c2ccccc2)CC1)c1cc(C(F)(F)F)cc(C(F)(F)F)c1 (stereo not shown) [Example 55, carbamic acid 1-(3,5-trifluoromethyl-phenyl)-3-oxo-3-(4-phenyl-piperazin-1-yl)-propyl ester]",change in vivo at 10 mg/kg,male ICR mouse [1],13.8%
same,change in vivo at 30 mg/kg,male ICR mouse [2],22.5%
same,change in vivo at 30 mg/kg,male ICR mouse [3],13.9%
same,inhibition in vivo at 10 mg/kg,male ICR mouse [4],32.8%
"NC(=O)OC(CCC(=O)N1CCN(c2ccc(Cl)c(Cl)c2)CC1)c1ccccc1 (stereo not shown) [Example 40, carbamic acid 4-[4-(3,4-dichloro-phenyl)-piperazin-1-yl]-4-oxo-1-phenyl-butyl ester]",change in vivo at 10 mg/kg,male ICR mouse [1],68.8%
same,change in vivo at 30 mg/kg,male ICR mouse [2],311%
same,change in vivo at 30 mg/kg,male ICR mouse [3],27.8%
same,inhibition in vivo at 10 mg/kg,male ICR mouse [4],11.1%
"COc1ccc(N2CCN(C(=O)CC(OC(N)=O)c3ccc(C(F)(F)F)cc3)CC2)cc1OC (stereo not shown) [Example 35, carbamic acid 3-[4-(3,4-dimethoxy-phenyl)-piperazin-1-yl]-3-oxo-1-(4-trifluoromethyl-phenyl)-propyl ester; hydrochloride]",change in vivo at 10 mg/kg,male ICR mouse [1],44%
same,change in vivo at 30 mg/kg,male ICR mouse [2],64.3%
same,change in vivo at 30 mg/kg,male ICR mouse [3],32.8%
same,inhibition in vivo at 10 mg/kg,male ICR mouse [4],33.8%
"Cc1cccc(C(CC(=O)N2CCN(c3ccccc3)CC2)OC(N)=O)c1 (stereo not shown) [Example 50, carbamic acid 1-(3-methyl-phenyl)-3-oxo-3-(4-phenyl-piperazin-1-yl)-propyl ester]",change in vivo at 10 mg/kg,male ICR mouse [1],65.4%
same,change in vivo at 30 mg/kg,male ICR mouse [2],-21.3%
same,change in vivo at 30 mg/kg,male ICR mouse [3],31.3%
same,inhibition in vivo at 10 mg/kg,male ICR mouse [4],15%
"NC(=O)O[C@H](CC(=O)N1CCN(c2ccc(F)cc2)CC1)c1ccccc1 [Example 62, (R)-carbamic acid 3-[4-(4-fluoro-phenyl)-piperazin-1-yl]-3-oxo-1-phenyl-propyl ester]",change in vivo at 10 mg/kg,male ICR mouse [1],2.7%
same,change in vivo at 30 mg/kg,male ICR mouse [2],0.8%
same,change in vivo at 30 mg/kg,male ICR mouse [3],13.8%
same,inhibition in vivo at 10 mg/kg,male ICR mouse [4],66.7%
"NC(=O)O[C@H](CC(=O)N1CCN(c2ccc(O)cc2)CC1)c1ccccc1 [Example 83, (R)-carbamic acid 3-[4-(4-hydroxy)-phenylpiperazin-1-yl]-3-oxo-1-phenyl-propyl ester]",change in vivo at 10 mg/kg,male ICR mouse [1],52.7%
same,change in vivo at 30 mg/kg,male ICR mouse [2],40.9%
same,change in vivo at 30 mg/kg,male ICR mouse [3],89.3%
same,inhibition in vivo at 10 mg/kg,male ICR mouse [4],44.5%
"NC(=O)OC(CC(=O)N1CCN(c2ccc(F)cc2)CC1)c1ccccc1 (stereo not shown) [Example 1, carbamic acid 3-[4-(4-fluoro-phenyl)-piperazin-1-yl]-3-oxo-1-phenyl-propyl ester]",change in vivo at 10 mg/kg,male ICR mouse [1],25.6%
same,change in vivo at 30 mg/kg,male ICR mouse [2],-65.7%
same,change in vivo at 30 mg/kg,male ICR mouse [3],17%
same,inhibition in vivo at 10 mg/kg,male ICR mouse [4],73.5%
"NC(=O)OC(CC(=O)N1CCN(c2ccc(Cl)c(C(F)(F)F)c2)CC1)c1ccccc1 (stereo not shown) [Example 27, carbamic acid 3-[4-(4-chloro-3-trifluoromethyl-phenyl)-piperazin-1-yl]-3-oxo-1-phenyl-propyl ester]",change in vivo at 10 mg/kg,male ICR mouse [1],66.7%
same,change in vivo at 30 mg/kg,male ICR mouse [2],-78.1%
same,change in vivo at 30 mg/kg,male ICR mouse [3],41.2%
same,inhibition in vivo at 10 mg/kg,male ICR mouse [4],29.1%
"Cc1ccc(N2CCN(C(=O)CC(OC(N)=O)c3ccccc3)CC2)cc1C (stereo not shown) [Example 20, carbamic acid 3-[4-(3,4-dimethyl-phenyl)-piperazin-1-yl]-3-oxo-1-phenyl-propyl ester]",change in vivo at 10 mg/kg,male ICR mouse [1],45.4%
same,change in vivo at 30 mg/kg,male ICR mouse [2],-6.3%
same,change in vivo at 30 mg/kg,male ICR mouse [3],45.4%
same,inhibition in vivo at 10 mg/kg,male ICR mouse [4],14.6%
"NC(=O)OC(CC(=O)N1CCN(c2ccccc2)CC1)c1cc(F)ccc1F (stereo not shown) [Example 57, carbamic acid 1-(2,5-difluoro-phenyl)-3-oxo-3-(4-phenyl-piperazin-1-yl)-propyl ester]",change in vivo at 10 mg/kg,male ICR mouse [1],88.8%
same,change in vivo at 30 mg/kg,male ICR mouse [2],27.9%
same,change in vivo at 30 mg/kg,male ICR mouse [3],11.2%
same,inhibition in vivo at 10 mg/kg,male ICR mouse [4],34.5%
"Cc1ccc(C(CC(=O)N2CCN(c3ccccc3)CC2)OC(N)=O)cc1 (stereo not shown) [Example 32, carbamic acid 3-oxo-3-(4-phenyl-piperazin-1-yl)-1-p-tolyl-propyl ester]",change in vivo at 10 mg/kg,male ICR mouse [1],9.5%
same,change in vivo at 30 mg/kg,male ICR mouse [2],-40%
same,change in vivo at 30 mg/kg,male ICR mouse [3],28.2%
same,inhibition in vivo at 10 mg/kg,male ICR mouse [4],6%
"O=C1Nc2ccccc2C(CC(=O)N2CCN(c3ccccc3)CC2)O1 (stereo not shown) [Example 77, 4-[2-oxo-2-(4-phenyl-piperazin-1-yl)-ethyl]-1,4-dihydro-benzo[d][1,3]oxazin-2-one]",change in vivo at 10 mg/kg,male ICR mouse [1],4.9%
same,change in vivo at 30 mg/kg,male ICR mouse [2],25%
same,change in vivo at 30 mg/kg,male ICR mouse [3],30.4%
same,inhibition in vivo at 10 mg/kg,male ICR mouse [4],26.4%
"NC(=O)OC(CC(=O)N1CCN(c2ccccc2)CC1)c1ccc(Cl)cc1 (stereo not shown) [Example 16, carbamic acid 1-(4-chloro-phenyl)-3-oxo-3-(4-phenyl-piperazin-1-yl)-propyl ester]",change in vivo at 10 mg/kg,male ICR mouse [1],1.3%
same,change in vivo at 30 mg/kg,male ICR mouse [2],140%
same,change in vivo at 30 mg/kg,male ICR mouse [3],19.5%
same,inhibition in vivo at 10 mg/kg,male ICR mouse [4],37.3%
"NC(=O)O[C@@H](CC(=O)N1CCN(c2ccc(O)cc2)CC1)c1ccccc1 [Example 84, (S)-carbamic acid 3-[4-(4-hydroxy)-phenylpiperazin-1-yl]-3-oxo-1-phenyl-propyl ester]",change in vivo at 10 mg/kg,male ICR mouse [1],65.6%
same,change in vivo at 30 mg/kg,male ICR mouse [2],-37.5%
same,change in vivo at 30 mg/kg,male ICR mouse [3],13.5%
same,inhibition in vivo at 10 mg/kg,male ICR mouse [4],32%
